Our source for the T/C values is PubChem BioAssay AID328 (DTP/NCI, 2004).

Values joined by “and” are separate entries in the source; they are usually repeats but may differ in a detail not shown here. Equal entries are not always repeated. Inconclusive results and toxic doses are left out.

In the test the test system is BDF1 mice, P388 leukemia ip, median survival T/C. The experiment in a line: NCI In Vivo Anticancer Drug Screen. Data for tumor model P388 Leukemia (intraperitoneal) in B6D2F1 (BDF1) mice. The following applies: endpoint: median survival time, higher = longer survival. In outline:
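Vehicle-dosed animals serve as the reference; survival of compound-dosed, tumour-implanted mice is divided by it.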

Setting [1] is: dose: 200.0 mg/kg/injection, schedule: Q01DX005 (ip), vehicle: saline with Tween-80.
The mark [2] stands for this setting: dose: 100.0 mg/kg/injection, schedule: Q01DX001 (ip), vehicle: saline with Tween-80.
Where [3] appears, read: dose: 200.0 mg/kg/injection, schedule: Q01DX001 (ip), vehicle: saline with Tween-80.
The mark [4] stands for this setting: dose: 400.0 mg/kg/injection, schedule: Q01DX001 (ip), vehicle: saline with Tween-80.
Setting [5] is: dose: 50.0 mg/kg/injection, schedule: Q01DX009 (ip), vehicle: saline.
The mark [6] stands for this setting: dose: 100.0 mg/kg/injection, schedule: Q01DX009 (ip), vehicle: saline.
[7] abbreviates: dose: 25.0 mg/kg/injection, schedule: Q01DX009 (ip), vehicle: saline with Tween-80.
Where [8] appears, read: dose: 50.0 mg/kg/injection, schedule: Q01DX009 (ip), vehicle: saline with Tween-80.
Setting [9] is: dose: 100.0 mg/kg/injection, schedule: Q01DX009 (ip), vehicle: saline with Tween-80.
Setting [10] is: dose: 200.0 mg/kg/injection, schedule: Q04DX003 (ip), vehicle: saline with Tween-80.
Setting [11] is: dose: 400.0 mg/kg/injection, schedule: Q04DX003 (ip), vehicle: saline with Tween-80.
Where [12] appears, read: dose: 200.0 mg/kg/injection, schedule: Q01DX009 (ip), vehicle: saline with Tween-80.

With `C=CCN(CC=C)c1ccc(N(CC)CC)cc1`, the T/C is, setting by setting: (dose: 100.0 mg/kg/injection, schedule: Q01DX001 (ip), vehicle: Klucel (hydroxypropylcellulose) (HPC)) 87 % of control; (dose: 200.0 mg/kg/injection, schedule: Q01DX001 (ip), vehicle: Klucel (hydroxypropylcellulose) (HPC)) 95 % of control; (dose: 400.0 mg/kg/injection, schedule: Q01DX001 (ip), vehicle: Klucel (hydroxypropylcellulose) (HPC)) 100 % of control.

As to `COc1cc(N(CCCl)CCCl)c(OC)cc1/C=N\Nc1nncn1N`, the T/C (dose: 2.2 mg/kg/injection, schedule: Q01DX009 (ip), vehicle: saline) was 168 % of control; the T/C (dose: 3.3 mg/kg/injection, schedule: Q01DX009 (ip), vehicle: saline) was 163 % of control; the T/C (dose: 5.0 mg/kg/injection, schedule: Q01DX009 (ip), vehicle: saline) was 186 % of control; the T/C (dose: 5.0 mg/kg/injection, schedule: Q04DX003 (ip), vehicle: saline) is 179 % of control; the T/C (dose: 6.25 mg/kg/injection, schedule: Q01DX009 (ip), vehicle: saline) is 172 % of control; the T/C (dose: 7.5 mg/kg/injection, schedule: Q01DX009 (ip), vehicle: saline) is 240 % of control. Besides, the T/C reads like this: (dose: 10.0 mg/kg/injection, schedule: Q04DX003 (ip), vehicle: saline) 212 % of control; (dose: 12.5 mg/kg/injection, schedule: Q01DX009 (ip), vehicle: saline) 90 % of control; (dose: 20.0 mg/kg/injection, schedule: Q04DX003 (ip), vehicle: saline) 108 % of control; (dose: 25.0 mg/kg/injection, schedule: Q01DX009 (ip), vehicle: saline) 86 % of control; (dose: 25.0 mg/kg/injection, schedule: Q04DX003 (ip), vehicle: saline sonified) 177 % of control.

On to `COc1cc(/C=C2/CCCCC2=O)ccc1O`, for which the T/C reads like this: (dose: 100.0 mg/kg/injection, schedule: Q01DX001 (ip), vehicle: other) 104 % of control; (dose: 200.0 mg/kg/injection, schedule: Q01DX001 (ip), vehicle: other) 95 % of control; (dose: 400.0 mg/kg/injection, schedule: Q01DX001 (ip), vehicle: other) 104 % of control.

On to `O=C1C(Cl)=C(Nc2nccs2)C(=O)c2ccccc21`, for which the T/C (dose: 50.0 mg/kg/injection, schedule: Q01DX005 (ip), vehicle: saline with Tween-80) was 102 % of control; the T/C (dose: 100.0 mg/kg/injection, schedule: Q01DX005 (ip), vehicle: saline with Tween-80) was 107 % of control; the T/C under setting [1] was 118 % of control.

On to `COC(=O)C(CCCCNC(=O)OCc1ccccc1)NC(=O)C(CCCCNC(=O)OCc1ccccc1)NC(=O)OC(C)(C)C` (stereo not drawn), for which the T/C under setting [1] is 90 % of control.

Take `Nc1nc(N)c(N=Cc2ccccc2)c(=O)[nH]1`: the T/C is 108 % of control under setting [2], 88 % of control under setting [3] and 97 % of control under setting [4].

Take `COc1c(O)cc2c(c1OC)-c1ccc(OC)c(=O)cc1[C@@H](NC(C)=O)CC2`: the T/C is 114 % of control (dose: 0.62 mg/kg/injection, schedule: Q01DX009 (ip), vehicle: saline with Tween-80); 159 % of control (dose: 0.63 mg/kg/injection, schedule: Q01DX009 (ip), vehicle: saline with Tween-80); 210 % of control (dose: 1.25 mg/kg/injection, schedule: Q01DX009 (ip), vehicle: saline with Tween-80); 236 % of control and 200 % of control (dose: 2.5 mg/kg/injection, schedule: Q01DX009 (ip), vehicle: saline with Tween-80); 236 % of control and 222 % of control (dose: 5.0 mg/kg/injection, schedule: Q01DX009 (ip), vehicle: saline with Tween-80); 210 % of control (dose: 10.0 mg/kg/injection, schedule: Q01DX009 (ip), vehicle: saline with Tween-80).

As to `COC(C(=O)C(O)C(C)O)C1Cc2cc3cc(OC4CC(OC5CC(O)C(O)C(C)O5)C(O)C(C)O4)c(C)c(O)c3c(O)c2C(=O)C1OC1CC(OC2CC(O)C(OC3CC(C)(O)C(O)C(C)O3)C(C)O2)C(O)C(C)O1` (stereo not drawn), the T/C by setting is: (dose: 0.03 mg/kg/injection, schedule: Q01DX009 (ip), vehicle: saline) 101 % of control; (dose: 0.06 mg/kg/injection, schedule: Q01DX009 (ip), vehicle: saline) 106 % of control; (dose: 0.13 mg/kg/injection, schedule: Q04DX003 (ip), vehicle: saline) 98 % of control; (dose: 0.25 mg/kg/injection, schedule: Q01DX009 (ip), vehicle: saline) 150 % of control; (dose: 0.25 mg/kg/injection, schedule: Q04DX003 (ip), vehicle: saline) 107 % of control; (dose: 0.5 mg/kg/injection, schedule: Q01DX009 (ip), vehicle: saline) 170 % of control. Also, the T/C is 101 % of control (dose: 0.5 mg/kg/injection, schedule: Q04DX003 (ip), vehicle: saline) and 120 % of control (dose: 1.0 mg/kg/injection, schedule: Q01DX009 (ip), vehicle: saline).

As for `CCC(/C=C\C(C)C1CCC2C3CC=C4CC(O)CCC4(C)C3CCC12C)C(C)C` (stereo not drawn), the T/C by setting is: (dose: 50.0 mg/kg/injection, schedule: Q01DX010 (ip), vehicle: saline) 104 % of control; (dose: 100.0 mg/kg/injection, schedule: Q01DX010 (ip), vehicle: saline) 108 % of control; (dose: 200.0 mg/kg/injection, schedule: Q01DX010 (ip), vehicle: saline) 100 % of control; (dose: 400.0 mg/kg/injection, schedule: Q01DX010 (ip), vehicle: saline) 91 % of control.

`CCCC1CC[N-]CC1.CCCC1CC[N-]CC1.[Cl][Co][Cl]`: the T/C reads like this: (dose: 12.5 mg/kg/injection, schedule: Q01DX009 (ip), vehicle: water) 91 % of control and 100 % of control; (dose: 25.0 mg/kg/injection, schedule: Q01DX009 (ip), vehicle: water) 116 % of control; (dose: 50.0 mg/kg/injection, schedule: Q01DX009 (ip), vehicle: water) 112 % of control; (dose: 50.0 mg/kg/injection, schedule: Q04DX003 (ip), vehicle: water) 120 % of control.

With `O=C(O)C1C2C=CC(C2)C1C(F)(F)C(F)(F)C(F)(F)F` (stereo not drawn), the T/C under setting [2] is 100 % of control, the T/C under setting [3] is 104 % of control and the T/C under setting [4] is 118 % of control.

`O=C1c2cccnc2C(=O)N1Cc1ccccc1`: the T/C was 109 % of control (dose: 9.38 mg/kg/injection, schedule: Q01DX009 (ip), vehicle: saline with Tween-80); 95 % of control (dose: 18.7 mg/kg/injection, schedule: Q01DX009 (ip), vehicle: saline with Tween-80); 100 % of control (dose: 37.5 mg/kg/injection, schedule: Q01DX009 (ip), vehicle: saline with Tween-80).

With `CC(O)C1CCCNC1` (stereo not drawn), the T/C under setting [5] is 110 % of control; the T/C under setting [6] is 100 % of control; the T/C (dose: 100.0 mg/kg/injection, schedule: Q04DX003 (ip), vehicle: saline) is 108 % of control; the T/C (dose: 200.0 mg/kg/injection, schedule: Q04DX003 (ip), vehicle: saline) was 104 % of control.

Take `Cc1cc(-c2ccccc2)[s+]s1`: the T/C is 122 % of control under setting [7]; 113 % of control under setting [8]; 109 % of control (dose: 50.0 mg/kg/injection, schedule: Q04DX003 (ip), vehicle: saline with Tween-80); 117 % of control under setting [9]; 117 % of control under setting [10]; 118 % of control under setting [11].

As for `C(=C\C1CC2CCCN2O1)/c1ccccc1` (stereo not drawn), the T/C is 100 % of control under setting [7]; 102 % of control and 105 % of control under setting [8]; 100 % of control under setting [9]; 98 % of control and 102 % of control under setting [12].

For the compound `CN(C)c1cc(=O)c2c(ccc3ccccc32)o1`, the T/C is 117 % of control (dose: 6.25 mg/kg/injection, schedule: Q01DX009 (ip), vehicle: saline with Tween-80); 97 % of control (dose: 12.5 mg/kg/injection, schedule: Q01DX009 (ip), vehicle: saline with Tween-80); 106 % of control under setting [7]; 106 % of control under setting [8].

Turning to `Cc1cccc(C)c1NC(=S)N1CCC(CCCC2CCN(C(=S)Nc3c(C)cccc3C)CC2)CC1`, the T/C by setting is: under setting [8], 86 % of control; under setting [9], 90 % of control; under setting [12], 104 % of control.

`CC(C)=C=CCN(C)Cc1ccccc1`: the T/C was 99 % of control under setting [5] and 103 % of control under setting [6].

Regarding `COC(=O)C(CSCSC)NC(=O)NC1CCCCC1` (stereo not drawn), the T/C was 95 % of control (dose: 100.0 mg/kg/injection, schedule: Q04DX003 (ip), vehicle: saline with Tween-80); 104 % of control under setting [10]; 95 % of control under setting [11].
